Test results: a melting point compilation (Tetko et al.)

Compared with O=C(O)C1CCCN1C(=O)c1cc(Cl)ccc1Cl (stereo not given), O=C(c1ccc(Cl)c([N+](=O)[O-])c1)N1CCCCC1 is lower in melting point: 194 to 196 °C for the first, 74 to 76 °C for the second.

First: COc1ccc(C(=O)c2ccccc2)c(OC)c1
Second: COc1ccc(C)cc1-n1cc(C(=O)O)ccc1=O
The melting point of the first is lower: 81 to 83 °C for the first, 244 to 246 °C for the second.

First: Cc1c(N)cccc1CS(C)=O (stereo not given)
Second: Cc1sc(N)nc1Cc1ccccc1
The melting point of the first is higher: 183 to 185 °C for the first, 75 to 77 °C for the second.

First: COC(=O)c1cc(F)cc(I)c1N
Second: Nc1c(C(=O)O)ccc(Cl)c1Cl
The melting point of the first is lower: 52 to 54 °C for the first, 235 to 237 °C for the second.

First: CNc1c(F)cccc1C(=O)O
Second: O=C(O)CCC(=O)c1ccc(F)cc1F
The melting point of the first is higher: 134 to 136 °C for the first, 113 to 115 °C for the second.

First: Cc1cc2c(n1-c1cccc(C(F)(F)F)c1)CCCC2=O
Second: O=C1CCCc2c(Br)cccc2N1
The melting point of the first is lower: 121 to 123 °C for the first, 169 to 171 °C for the second.

First: NC(=O)CN1CCC(O)CC1
Second: O=S(=O)(CCN1CCC(O)CC1)c1ccc(Br)cc1
The melting point of the first is lower: 114 to 116 °C for the first, 117 to 119 °C for the second.

Compared with O=C(O)C=Cc1cc(Br)c2c(c1)OCCO2, COc1ccc(Br)cc1CCC(=O)O is lower in melting point: 267 to 269 °C for the first, 116 to 118 °C for the second.

Compared with NC(=O)NC(CC(=O)O)c1ccccc1 (stereo not given), CC(NC(=O)C(Br)C(C)C)c1ccccc1 (stereo not given) is lower in melting point: 194 to 196 °C for the first, 73 to 75 °C for the second.

Compared with Cc1nc2s[nH]c(=O)c2c(C)c1C, O=C(O)c1ccc2c(=O)[nH]c(S)nc2c1 is higher in melting point: 236 to 238 °C for the first, 379 to 381 °C for the second.

First: CS(=O)(=O)c1ccc(S(N)(=O)=O)cc1
Second: CCCSc1ccc(C(=O)O)cc1
The melting point of the first is higher: 246 to 248 °C for the first, 141 to 143 °C for the second.

First: NC(=O)N1CCOCC1
Second: O=C1NC(=O)C2(CCOCC2)N1
The melting point of the first is lower: 106 to 108 °C for the first, 264 to 266 °C for the second.

First: Cn1c(S)nnc1CO
Second: Cn1cc(SSc2cnn(C)c2)cn1
The melting point of the first is higher: 189 to 191 °C for the first, 111 to 113 °C for the second.

First: O=S(=O)(NC1CCCNC1)c1ccccc1 (stereo not given)
Second: O=C(O)C(Cc1ccccc1)NS(=O)(=O)c1ccccc1F (stereo not given)
The melting point of the first is lower: 133 to 135 °C for the first, 258 to 260 °C for the second.

First: COc1nc(Cl)nc(N2CCCCCC2)n1
Second: COc1nc(C)ccc1C#N
The melting point of the first is higher: 114 to 116 °C for the first, 84 to 86 °C for the second.

First: C[C@H](NC(=O)c1cccc([N+](=O)[O-])c1)C(=O)O
Second: O=C(O)c1ccc(Oc2ccc(F)cc2[N+](=O)[O-])c(Cl)c1
The melting point of the first is higher: 159 to 161 °C for the first, 155 to 157 °C for the second.

First: O=S1(=O)CCC(Br)CC1
Second: CCC1(C)NC(=O)N(CC(=O)O)C1=O (stereo not given)
The melting point of the first is lower: 127 to 129 °C for the first, 156 to 158 °C for the second.

Compared with CN(C)CC(O)Cn1cc(N)cn1 (stereo not given), NCCCCc1cn[nH]c1 is higher in melting point: 68 to 70 °C for the first, 72 to 74 °C for the second.

S=C1Cc2ccccc2N1 and COCCOc1nc(C(=O)O)cc2ccccc12 cannot be ordered by melting point: 146 to 148 °C for the first, 145 to 147 °C for the second.

First: Cc1cc(Cl)ccc1OCCCC(=O)NN
Second: CC(=O)CCc1ccc(OCC(=O)O)cc1
The melting point of the first is lower: 37 to 39 °C for the first, 106 to 108 °C for the second.
